Reference: patent US20250101041A1, “POSITIVE ALLOSTERIC MODULATORS OF THE MUSCARINIC ACETYLCHOLINE RECEPTOR M4” (Vanderbilt University, priority 2022, published 2025)

Target: T1, human mAChR M4 (Homo sapiens, UniProt P08173)
T1 construct: expressed in transfected cells; host or cells: CHO-K1 (American Type Culture Collection), stably expressing hM4 and Gqi5
T1 sequence (P08173 1-479): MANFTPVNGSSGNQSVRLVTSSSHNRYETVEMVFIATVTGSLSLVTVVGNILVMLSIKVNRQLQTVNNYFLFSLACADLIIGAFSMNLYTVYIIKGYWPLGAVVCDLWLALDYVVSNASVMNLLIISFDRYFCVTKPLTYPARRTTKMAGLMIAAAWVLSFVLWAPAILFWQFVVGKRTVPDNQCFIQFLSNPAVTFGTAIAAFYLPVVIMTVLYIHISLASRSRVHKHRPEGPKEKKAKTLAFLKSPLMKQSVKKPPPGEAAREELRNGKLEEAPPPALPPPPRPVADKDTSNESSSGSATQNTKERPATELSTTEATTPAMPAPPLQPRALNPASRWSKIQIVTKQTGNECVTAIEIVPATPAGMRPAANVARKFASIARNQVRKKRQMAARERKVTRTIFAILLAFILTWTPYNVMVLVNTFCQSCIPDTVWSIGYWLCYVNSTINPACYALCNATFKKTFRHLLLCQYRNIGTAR
Assay: mAChR M4 cell-based functional assay: calcium mobilization (Fluo-4, FDSS), potentiation of EC20 acetylcholine response in hM4-Gqi5 CHO-K1 cells
Details: human M4; for Emax at 30 µM: CHO-K1, % ACh maximum at 30 μM; for EC50: potentiation of EC20 acetylcholine response, calcium mobilization
Summary of the method: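 CHO-K1 cells stably co-expressing human M4 and chimeric Gqi5, loaded with Fluo-4 AM (50 min, 37 °C). Compounds in 11-point 1:3 series added first; EC20 acetylcholine added at 144 s and again at 230 s. Calcium read on FDSS at 1 Hz; EC50 and Emax from four-parameter logistic fit of potentiated EC20 response.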

Structure (SMILES) | Emax at 30 µM [%] | EC50 [nM]
Cc1ccncc1-c1cnc2c(c1)CN(c1nn3c(=O)cc(C(F)F)nc3c(C)c1C)CC2 [Compound 1-161, 2-(difluoromethyl)-8,9-dimethyl-7-(3-(4-methylpyridin-3-yl)-7,8-dihydro-1,6-naphthyridin-6(5H)-yl)-4H-pyrimido[1,2-b]pyridazin-4-one] | 76 | 92
Cc1cc2nccn2cc1-c1cnc2c(c1)CN(c1nn3c(=O)cc(C(F)F)nc3c(C)c1C)CC2 [Compound 1-162, 2-(difluoromethyl)-8,9-dimethyl-7-(3-(7-methylimidazo[1,2-a]pyridin-6-yl)-7,8-dihydro-1,6-naphthyridin-6(5H)-yl)-4H-pyrimido[1,2-b]pyridazin-4-one] | 71 | 520
Cc1c(N2CCc3ncc(-c4cnn(-c5ccccn5)c4)cc3C2)nn2c(=O)cc(C(F)F)nc2c1C [Compound 1-163, 2-(difluoromethyl)-8,9-dimethyl-7-(3-(1-(pyridin-2-yl)-1H-pyrazol-4-yl)-7,8-dihydro-1,6-naphthyridin-6(5H)-yl)-4H-pyrimido[1,2-b]pyridazin-4-one] | 71 | 1020
Cc1ccc(-c2cnc3c(c2)CN(c2nn4c(=O)cc(C(F)F)nc4c(C)c2C)CC3)c(C)c1 [Compound 1-164, 2-(difluoromethyl)-7-(3-(2,4-dimethylphenyl)-7,8-dihydro-1,6-naphthyridin-6(5H)-yl)-8,9-dimethyl-4H-pyrimido[1,2-b]pyridazin-4-one] | 69 | 640
Cc1c(N2CCc3ncc(-c4cnn(-c5ccccc5F)c4)cc3C2)nn2c(=O)cc(C(F)F)nc2c1C [Compound 1-165, 2-(difluoromethyl)-7-(3-(1-(2-fluorophenyl)-1H-pyrazol-4-yl)-7,8-dihydro-1,6-naphthyridin-6(5H)-yl)-8,9-dimethyl-4H-pyrimido[1,2-b]pyridazin-4-one] | 47 | 
CCn1cc(-c2cnc3c(c2)CN(c2nn4c(=O)cc(C(F)F)nc4c(C)c2C)CC3)cn1 [Compound 1-166, 2-(difluoromethyl)-7-(3-(1-ethyl-1H-pyrazol-4-yl)-7,8-dihydro-1,6-naphthyridin-6(5H)-yl)-8,9-dimethyl-4H-pyrimido[1,2-b]pyridazin-4-one] | 86 | 283
COc1cncc(-c2cnc3c(c2)CN(c2nn4c(=O)cc(C(F)F)nc4c(C)c2C)CC3)c1 [Compound 1-167, 2-(difluoromethyl)-7-(3-(5-methoxypyridin-3-yl)-7,8-dihydro-1,6-naphthyridin-6(5H)-yl)-8,9-dimethyl-4H-pyrimido[1,2-b]pyridazin-4-one] | 80 | 353
COc1ncc(-c2cnc3c(c2)CN(c2nn4c(=O)cc(C(F)F)nc4c(C)c2C)CC3)cc1Cl [Compound 1-168, 7-(3-(5-chloro-6-methoxypyridin-3-yl)-7,8-dihydro-1,6-naphthyridin-6(5H)-yl)-2-(difluoromethyl)-8,9-dimethyl-4H-pyrimido[1,2-b]pyridazin-4-one] | 72 | 2310
Cc1ccc(-c2cnc3c(c2)CN(c2nn4c(=O)cc(C(F)F)nc4c(C)c2C)CC3)cc1 [Compound 1-169, 2-(difluoromethyl)-8,9-dimethyl-7-(3-(p-tolyl)-7,8-dihydro-1,6-naphthyridin-6(5H)-yl)-4H-pyrimido[1,2-b]pyridazin-4-one] | 89 | 883
COc1ccc(-c2cnc3c(c2)CN(c2nn4c(=O)cc(C(F)F)nc4c(C)c2C)CC3)cn1 [Compound 1-170, 2-(difluoromethyl)-7-(3-(6-methoxypyridin-3-yl)-7,8-dihydro-1,6-naphthyridin-6(5H)-yl)-8,9-dimethyl-4H-pyrimido[1,2-b]pyridazin-4-one] | 95 | 185
Cc1ccc(F)cc1-c1cnc2c(c1)CN(c1nn3c(=O)cc(C(F)F)nc3c(C)c1C)CC2 [Compound 1-171, 2-(difluoromethyl)-7-(3-(5-fluoro-2-methylphenyl)-7,8-dihydro-1,6-naphthyridin-6(5H)-yl)-8,9-dimethyl-4H-pyrimido[1,2-b]pyridazin-4-one] | 91 | 429
Cc1c(N2CCc3ncc(-c4cnn(C(F)F)c4)cc3C2)nn2c(=O)cc(C(F)F)nc2c1C [Compound 1-172, 2-(difluoromethyl)-7-(3-(1-(difluoromethyl)-1H-pyrazol-4-yl)-7,8-dihydro-1,6-naphthyridin-6(5H)-yl)-8,9-dimethyl-4H-pyrimido[1,2-b]pyridazin-4-one] | 85 | 114
Cc1c(N2CCc3ncc(-c4cnn(CCN5CCOCC5)c4)cc3C2)nn2c(=O)cc(C(F)F)nc2c1C [Compound 1-173, 2-(difluoromethyl)-8,9-dimethyl-7-(3-(1-(2-morpholinoethyl)-1H-pyrazol-4-yl)-7,8-dihydro-1,6-naphthyridin-6(5H)-yl)-4H-pyrimido[1,2-b]pyridazin-4-one] | 81 | 338
Cc1c(N2CCc3ncc(-c4ccc(Cl)nc4Cl)cc3C2)nn2c(=O)cc(C(F)F)nc2c1C [Compound 1-174, 7-(3-(2,6-dichloropyridin-3-yl)-7,8-dihydro-1,6-naphthyridin-6(5H)-yl)-2-(difluoromethyl)-8,9-dimethyl-4H-pyrimido[1,2-b]pyridazin-4-one] | 82 | 450
Cc1cc(=O)n2nc(N3CCc4ncc(-c5cnn(-c6ccccn6)c5)cc4C3)c(C)c(C)c2n1 [Compound 1-175, 2,8,9-trimethyl-7-(3-(1-(pyridin-2-yl)-1H-pyrazol-4-yl)-7,8-dihydro-1,6-naphthyridin-6(5H)-yl)-4H-pyrimido[1,2-b]pyridazin-4-one] | 61 | 4660
Cc1cc(=O)n2nc(N3CCc4ncc(-c5ccnn5C5COC5)cc4C3)c(C)c(C)c2n1 [Compound 1-176, 2,8,9-trimethyl-7-(3-(1-(oxetan-3-yl)-1H-pyrazol-5-yl)-7,8-dihydro-1,6-naphthyridin-6(5H)-yl)-4H-pyrimido[1,2-b]pyridazin-4-one] | 74 | 4840
Cc1cc(=O)n2nc(N3CCc4ncc(-c5cnn(CCN(C)C)c5)cc4C3)c(C)c(C)c2n1 [Compound 1-177, 7-(3-(1-(2-(dimethylamino)ethyl)-1H-pyrazol-4-yl)-7,8-dihydro-1,6-naphthyridin-6(5H)-yl)-2,8,9-trimethyl-4H-pyrimido[1,2-b]pyridazin-4-one] | 84 | 1420
Cc1cc(=O)n2nc(N3CCc4ncc(-c5cnn(CCN6CCOCC6)c5)cc4C3)c(C)c(C)c2n1 [Compound 1-178, 2,8,9-trimethyl-7-(3-(1-(2-morpholinoethyl)-1H-pyrazol-4-yl)-7,8-dihydro-1,6-naphthyridin-6(5H)-yl)-4H-pyrimido[1,2-b]pyridazin-4-one] | 74 | 2510
Cc1cc(=O)n2nc(N3CCc4ncc(-c5cnn(C6COC6)c5)cc4C3)c(C)c(C)c2n1 [Compound 1-179, 2,8,9-trimethyl-7-(3-(1-(oxetan-3-yl)-1H-pyrazol-4-yl)-7,8-dihydro-1,6-naphthyridin-6(5H)-yl)-4H-pyrimido[1,2-b]pyridazin-4-one] | 85 | 805
Cc1cc(=O)n2nc(N3CCc4ncc(-c5cnn(-c6ccccc6F)c5)cc4C3)c(C)c(C)c2n1 [Compound 1-180, 7-(3-(1-(2-fluorophenyl)-1H-pyrazol-4-yl)-7,8-dihydro-1,6-naphthyridin-6(5H)-yl)-2,8,9-trimethyl-4H-pyrimido[1,2-b]pyridazin-4-one] | 63 | 2470
Cc1cc(=O)n2nc(N3CCc4ncc(-c5cnn6ccccc56)cc4C3)c(C)c(C)c2n1 [Compound 1-181, 2,8,9-trimethyl-7-(3-(pyrazolo[1,5-a]pyridin-3-yl)-7,8-dihydro-1,6-naphthyridin-6(5H)-yl)-4H-pyrimido[1,2-b]pyridazin-4-one] | 95 | 648
Cc1cc(=O)n2nc(N3CCc4ncc(-c5cnn(C6CCOCC6)c5)cc4C3)c(C)c(C)c2n1 [Compound 1-182, 2,8,9-trimethyl-7-(3-(1-(tetrahydro-2H-pyran-4-yl)-1H-pyrazol-4-yl)-7,8-dihydro-1,6-naphthyridin-6(5H)-yl)-4H-pyrimido[1,2-b]pyridazin-4-one] | 66 | 1410
Cc1cc(=O)n2nc(N3CCc4ncc(-c5cnn(C6CC6)c5)cc4C3)c(C)c(C)c2n1 [Compound 1-183, 7-(3-(1-cyclopropyl-1H-pyrazol-4-yl)-7,8-dihydro-1,6-naphthyridin-6(5H)-yl)-2,8,9-trimethyl-4H-pyrimido[1,2-b]pyridazin-4-one] | 79 | 582
Cc1cc(=O)n2nc(N3CCc4ncc(-c5cnn(CC(F)(F)F)c5)cc4C3)c(C)c(C)c2n1 [Compound 1-184, 2,8,9-trimethyl-7-(3-(1-(2,2,2-trifluoroethyl)-1H-pyrazol-4-yl)-7,8-dihydro-1,6-naphthyridin-6(5H)-yl)-4H-pyrimido[1,2-b]pyridazin-4-one] | 80 | 1260
